Assay results published in patent US9855272B2, “1H-pyrazolo[3,4-B]pyridines and therapeutic uses thereof” (Samumed, LLC, priority 2009, dated 2018).

Each compound was assayed on Wnt (assay: Wnt reporter assay: SP5 promoter-driven firefly luciferase in SW480 cells). Conditions: Homo sapiens; SW480 colon cancer cells with SP5 promoter (TCF/LEF) luciferase reporter; 24-40 h after compound addition; normalized to DMSO; read-out: Wnt inhibition, IC50.
Format: cell-based
From the text: Another screening assay for Wnt activity is described as follows. Reporter cell lines can be generated by stably transducing cells of cancer cell lines (e.g., colon cancer) with a lentiviral construct that include a wnt-responsive promoter driving expression of the firefly luciferase gene.
Lentiviral constructs can be made in which the SP5 promoter, a promoter having eight TCF/LEF binding sites derived from the SP5 promoter, is linked upstream of the firefly luciferase gene. The lentiviral constructs can also include a hygromycin resistance gene as a selectable marker. The SP5 promoter construct can be used to transduce SW480 cells, a colon cancer cell line having a mutated APC gene that generates a truncated APC protein, leading to de-regulated accumulation of β-catenin.
Cultured SW480 cells bearing a reporter construct can be distributed at approximately 10,000 cells per well into 96 well or 384 well plates. Compounds from a small molecule compound library can then be added to the wells in half-log dilutions using a ten micromolar top concentration. A series of control wells for each cell type receive only buffer and compound solvent. Twenty-four to forty hours after the addition of compound, reporter activity for luciferase can be assayed, for example, by addition of the BrightGlo luminescence reagent (Promega) and the Victor3 plate reader (Perkin Elmer). Readings can be normalized to DMSO only treated cells, and normalized activities can then be used in the IC50 calculations.

First: Cc1ccncc1-c1cnc2[nH]nc(-c3nc4ccncc4[nH]3)c2c1 [Compound 29, 3-(3H-imidazo[4,5-c]pyridin-2-yl)-5-(4-methylpyridin-3-yl)-1H-pyrazolo[3,4-b]pyridine]
Second: c1cncc(-c2cnc3[nH]nc(-c4nc5ccncc5[nH]4)c3c2)c1 [Compound 46]
The IC50 of the first is higher: 3 to 5 µM for the first, 1 to 2 µM for the second. The second is the more potent here.

First: c1cncc(-c2cnc3[nH]nc(-c4nc5c(-c6cccnc6)cncc5[nH]4)c3c2)c1 [Compound 45]
Second: CCC(=O)Nc1cncc(-c2cnc3[nH]nc(-c4nc5c(-c6cccnc6)cncc5[nH]4)c3c2)c1 [Compound 47, N-(5-(3-(7-(pyridin-3-yl)-3H-imidazo[4,5-c]pyridin-2-yl)-1H-pyrazolo[3,4-b]pyridin-5-yl)pyridin-3-yl)propionamide]
The IC50 of the first is lower: 0.2 to 1.2 µM for the first, 7 to 10 µM for the second.

CCC(=O)Nc1cncc(-c2cnc3[nH]nc(-c4nc5c(-c6cccc(F)c6)cncc5[nH]4)c3c2)c1 [Compound 49, N-(5-(3-(7-(3-fluorophenyl)-3H-imidazo[4,5-c]pyridin-2-yl)-1H-pyrazolo[3,4-b]pyridin-5-yl)pyridin-3-yl)propionamide] and CN(C)C(=O)Nc1cncc(-c2cnc3[nH]nc(-c4nc5c(-c6cccc(F)c6)cncc5[nH]4)c3c2)c1 [Compound 66, 3-(5-(3-(7-(3-fluorophenyl)-3H-imidazo[4,5-c]pyridin-2-yl)-1H-pyrazolo[3,4-b]pyridin-5-yl)pyridin-3-yl)-1,1-dimethylurea] cannot be ordered by IC50: under 0.005 µM for the first, under 0.015 µM for the second.

CCC(=O)Nc1cncc(-c2cnc3[nH]nc(-c4nc5c(-c6ccc(F)cc6)cncc5[nH]4)c3c2)c1 [Compound 50, N-(5-(3-(7-(4-fluorophenyl)-3H-imidazo[4,5-c]pyridin-2-yl)-1H-pyrazolo[3,4-b]pyridin-5-yl)pyridin-3-yl)propionamide] and CCC(=O)Nc1cncc(-c2cnc3[nH]nc(-c4nc5c(-c6ccccc6F)cncc5[nH]4)c3c2)c1 [Compound 51, N-(5-(3-(7-(2-fluorophenyl)-3H-imidazo[4,5-c]pyridin-2-yl)-1H-pyrazolo[3,4-b]pyridin-5-yl)pyridin-3-yl)propionamide] cannot be ordered by IC50: under 0.0015 µM for the first, under 0.045 µM for the second.

CC(C)C(=O)Nc1cncc(-c2cnc3[nH]nc(-c4nc5ccncc5[nH]4)c3c2)c1 [Compound 52, N-(5-(3-(3H-imidazo[4,5-c]pyridin-2-yl)-1H-pyrazolo[3,4-b]pyridin-5-yl)pyridin-3-yl)isobutyramide] and CC(C)CC(=O)Nc1cncc(-c2cnc3[nH]nc(-c4nc5ccncc5[nH]4)c3c2)c1 [Compound 53, N-(5-(3-(3H-imidazo[4,5-c]pyridin-2-yl)-1H-pyrazolo[3,4-b]pyridin-5-yl)pyridin-3-yl)-3-methylbutanamide] cannot be ordered by IC50: over 10 µM for the first, over 10 µM for the second.

First: CCC(=O)Nc1cncc(-c2cnc3[nH]nc(-c4nc5c(N6CCOCC6)cncc5[nH]4)c3c2)c1 [Compound 55, N-(5-(3-(7-morpholino-3H-imidazo[4,5-c]pyridin-2-yl)-1H-pyrazolo[3,4-b]pyridin-5-yl)pyridin-3-yl)propionamide]
Second: CC(C)CC(=O)Nc1cncc(-c2cnc3[nH]nc(-c4nc5c(N6CCN(C)CC6)cncc5[nH]4)c3c2)c1 [Compound 57, 3-methyl-N-(5-(3-(7-(4-methylpiperazin-1-yl)-3H-imidazo[4,5-c]pyridin-2-yl)-1H-pyrazolo[3,4-b]pyridin-5-yl)pyridin-3-yl)butanamide]
The IC50 of the first is higher: over 10 µM for the first, 1 to 4 µM for the second. The second is the more potent here.

Compared with CC(C)C(=O)Nc1cncc(-c2cnc3[nH]nc(-c4nc5c(N6CCN(C)CC6)cncc5[nH]4)c3c2)c1 [Compound 59, N-(5-(3-(7-(4-methylpiperazin-1-yl)-3H-imidazo[4,5-c]pyridin-2-yl)-1H-pyrazolo[3,4-b]pyridin-5-yl)pyridin-3-yl)isobutyramide], O=C(Nc1cncc(-c2cnc3[nH]nc(-c4nc5c(-c6cccc(F)c6)cncc5[nH]4)c3c2)c1)N1CCOCC1 [Compound 62, N-(5-(3-(7-(3-fluorophenyl)-3H-imidazo[4,5-c]pyridin-2-yl)-1H-pyrazolo[3,4-b]pyridin-5-yl)pyridin-3-yl)morpholine-4-carboxamide] is lower in IC50: 2 to 3 µM for the first, under 0.02 µM for the second. The second is the more potent here.
